Source: ChEMBL document CHEMBL1136092, “Enantiotracin” (2003)
Converted amounts (≈) assume the structure as drawn.

What was measured:
Type in all cases: functional
Micrococcus luteus = experiment: In vitro inhibitory concentration required against Micrococcus luteus (Micrococcus luteus)
[1] = system: Staphylococcus epidermidis; experiment: In vitro inhibitory concentration required against Staphylococcus epidermidis (Staphylococcus epidermidis)
Staphylococcus aureus = experiment: In vitro inhibitory concentration required against Staphylococcus aureus (Staphylococcus aureus)

Compound | MIC (Micrococcus luteus) [µg/mL] | MIC ([1]; Staphylococcus epidermidis, read-out: MIC) [µg/mL] | MIC (Staphylococcus aureus; Staphylococcus aureus, read-out: MIC) [µg/mL] | MIC [1] [µg/mL] | MIC (Staphylococcus aureus) [µg/mL]
CC[C@H](C)[C@@H](N)C1=N[C@@H](C(=O)N[C@H](CC(C)C)C(=O)N[C@@H](CCC(=O)O)C(=O)N[C@@H](C(=O)N[C@@H]2CCCCNC(=O)[C@@H](CC(N)=O)NC(=O)[C@H](CC(=O)O)NC(=O)[C@@H](Cc3c[nH]cn3)NC(=O)[C@H](Cc3ccccc3)NC(=O)[C@@H]([C@@H](C)CC)NC(=O)[C@H](CCCN)NC2=O)[C@@H](C)CC)CS1 (stereo in doubt; form 1) [BACITRACIN A] | < 0.013 | 32 (≈ 22.5 µM) | 4 (≈ 2.81 µM) |  | 
CC[C@H](C)[C@@H](N)C1=N[C@@H](C(=O)N[C@H](CC(C)C)C(=O)N[C@@H](CCC(=O)O)C(=O)N[C@@H](C(=O)N[C@@H]2CCCCNC(=O)[C@@H](CC(N)=O)NC(=O)[C@H](CC(=O)O)NC(=O)[C@@H](Cc3c[nH]cn3)NC(=O)[C@H](Cc3ccccc3)NC(=O)[C@@H]([C@@H](C)CC)NC(=O)[C@H](CCCN)NC2=O)[C@@H](C)CC)CS1 (stereo in doubt; form 2) [BACITRACIN A] |  |  |  | 32 (≈ 22.5 µM) | 4 (≈ 2.81 µM)
